Results on 14 compounds are retold here after patent US6448269B1 (Eli Lilly and Company, priority 1993, dated 2002).

pIC50: −log10 of the molar value. Where a name gives a salt, the structure may show the parent alone. Read-outs that look alike come from different tables or passages of the source.

The test system of data set [1] is human platelet-rich plasma. In words: Platelet aggregation assay (Aggregation-Human PRP/ADP). The class given is cell-based. As to conditions: human platelet-rich plasma incubated with compound 1 minute at 37° C., ADP-induced aggregation, read-out: Agg: Human PRP/ADP IC50uM. The gist of the method:
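Citrated human PRP (~200-400,000 platelets/μl) from healthy volunteers, stirred, incubated with compound 1 min at 37° C. Aggregation was then triggered, most often by ADP 5 μM, or by 1 μg/ml collagen, 1 μM U46619 or 0.3 μM platelet activating factor, and read in an aggregometer with platelet-poor plasma as reference.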

For data set [2], the target named is T1, GPIIb-IIIa (Homo sapiens, UniProt P05106+P08514).
T1 construct: Purified platelet GPIIb-IIIa receptor was prepared as described by Fitzgerald; from tissue; host or cells: platelets
T1 sequence (P08514 32-887 limits assumed): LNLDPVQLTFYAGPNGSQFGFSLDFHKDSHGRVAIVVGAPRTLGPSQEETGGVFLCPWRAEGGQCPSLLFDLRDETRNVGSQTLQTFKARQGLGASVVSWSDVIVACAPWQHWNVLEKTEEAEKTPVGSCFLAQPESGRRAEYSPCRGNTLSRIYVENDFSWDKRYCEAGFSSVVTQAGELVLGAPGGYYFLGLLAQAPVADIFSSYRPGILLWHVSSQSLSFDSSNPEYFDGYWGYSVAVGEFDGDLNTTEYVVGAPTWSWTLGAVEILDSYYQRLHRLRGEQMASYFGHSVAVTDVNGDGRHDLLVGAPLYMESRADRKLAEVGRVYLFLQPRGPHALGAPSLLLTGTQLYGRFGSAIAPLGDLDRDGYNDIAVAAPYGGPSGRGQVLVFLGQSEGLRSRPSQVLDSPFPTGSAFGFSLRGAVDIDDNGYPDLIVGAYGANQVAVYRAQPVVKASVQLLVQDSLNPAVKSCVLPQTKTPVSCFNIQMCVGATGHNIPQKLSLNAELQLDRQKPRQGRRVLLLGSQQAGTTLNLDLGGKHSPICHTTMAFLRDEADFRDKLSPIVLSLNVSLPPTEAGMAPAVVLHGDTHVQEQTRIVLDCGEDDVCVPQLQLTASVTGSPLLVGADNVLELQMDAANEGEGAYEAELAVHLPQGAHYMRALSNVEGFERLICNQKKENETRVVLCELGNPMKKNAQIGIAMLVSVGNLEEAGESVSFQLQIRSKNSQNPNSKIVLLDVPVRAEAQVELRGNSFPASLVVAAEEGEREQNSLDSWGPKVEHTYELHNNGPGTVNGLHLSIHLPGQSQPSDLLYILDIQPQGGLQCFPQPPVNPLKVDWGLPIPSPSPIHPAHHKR
T1 sequence (P05106 27-788): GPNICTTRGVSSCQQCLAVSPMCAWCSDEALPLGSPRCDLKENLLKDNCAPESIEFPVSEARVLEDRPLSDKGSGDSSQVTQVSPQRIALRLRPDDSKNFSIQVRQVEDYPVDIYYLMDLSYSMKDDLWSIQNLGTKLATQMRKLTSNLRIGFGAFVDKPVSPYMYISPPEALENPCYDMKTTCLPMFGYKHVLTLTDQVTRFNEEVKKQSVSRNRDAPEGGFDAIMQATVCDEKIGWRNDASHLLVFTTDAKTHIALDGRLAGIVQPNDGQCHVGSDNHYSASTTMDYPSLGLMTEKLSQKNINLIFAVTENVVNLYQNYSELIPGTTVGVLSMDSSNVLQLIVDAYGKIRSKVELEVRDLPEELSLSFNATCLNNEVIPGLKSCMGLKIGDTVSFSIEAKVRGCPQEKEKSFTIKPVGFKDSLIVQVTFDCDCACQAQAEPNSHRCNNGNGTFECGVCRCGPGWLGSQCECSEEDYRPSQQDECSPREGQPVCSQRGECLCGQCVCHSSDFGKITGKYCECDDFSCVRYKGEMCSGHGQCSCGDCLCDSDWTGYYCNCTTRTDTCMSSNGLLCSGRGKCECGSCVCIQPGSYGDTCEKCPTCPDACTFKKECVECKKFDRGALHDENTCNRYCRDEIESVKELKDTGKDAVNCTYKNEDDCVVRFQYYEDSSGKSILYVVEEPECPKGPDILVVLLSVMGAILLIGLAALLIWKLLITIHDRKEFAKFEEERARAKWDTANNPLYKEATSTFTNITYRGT
In words: ELISA IIb-IIIa assay (fibrinogen binding to immobilized GPIIb-IIIa). As to conditions: purified platelet GPIIb-IIIa receptor coated on ELISA plates; biotin-labeled fibrinogen 10 nM, 3 hours at 25° C. The gist of the method: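 Purified platelet GPIIb-IIIa was coated overnight at 4° C in Tris/NaCl/CaCl2 pH 7.4 and BSA-blocked. Biotinylated fibrinogen (10 nM final) was incubated with test compounds for 3 h at 25° C in Ca2+-containing binding buffer. Bound ligand was detected by anti-biotin–alkaline phosphatase with pNPP, OD 405.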
For orientation: In an ELISA, binding on a coated surface is turned into a signal by an enzyme label.

A word on the melting point: it is the temperature, or range, at which the solid turns liquid.

On to `N=C(N)c1ccc(C(=O)Nc2ccc3c(c2)CCC(CC(=O)O)C3=O)s1` (stereo not drawn) [Example 106], for which the melting point is 205 to 208 °C (dec.).

For the compound `CNC(=N)c1ccc(C(=O)Nc2ccc3c(c2)CCC(CC(=O)O)O3)cc1` (racemic) [Example 58, rac-(3,4-Dihydro-6-(N-(4-((methylamino)iminomethyl)benzoyl)amino)-2H-1-benzopyran-2-yl)acetic Acid], the pIC50 was 6.55 in data set [1] (1 min) and 7.48 in data set [2].

In the case of “(+−)-6-[[4-(Aminoiminomethyl)phenyl]methoxy]-3,4-dihydro-1-oxo-beta-(1,4-dioxyhexyl)-2(1H)-isoquinoline Propionoic Acid Trifluoroacetate [Example 13]”, the pIC50 was 6.17 in data set [1] and 7.00 in data set [2].

As for `CCCCNC(=N)c1ccc(C(=O)Nc2ccc3c(c2)CCC(CC(=O)O)O3)cc1` (racemic) [Example 84, rac-(6-(N-(4-((Butylamino)iminomethyl)benzoyl)amino)-3,4-dihydro-2H-1-benzopyran-2-yl)acetic Acid], the pIC50 in data set [1] (1 min) is 7.08; in data set [2] it was 8.26.

With `CC1(CCC(=O)O)CCc2cc(NC(=O)c3ccc(C(=N)N)cc3)ccc2O1` (racemic) [Example 56, rac-3-(6-(N-(4-(Aminoiminomethyl)benzoyl)amino)-3,4-dihydro-2-methyl-2H-1-benzopyran-2-yl)propanoic Acid], the results for the pIC50 in data set [1] (1 min) and in data set [2] were 6.05 and 6.85, respectively.

Regarding `N=C(N)c1ccc(C(=O)Nc2ccc3c(c2)OCC(OCC(=O)O)C3)cc1` (stereo not drawn) [Example 41], the pIC50 was 6.52 in data set [1] (1 min) and 7.34 in data set [2].

As to `N=C(N)c1ccc(COc2ccc3c(c2)CCC(OCC(=O)O)C3)cc1` (stereo not drawn) [Example 23], the pIC50 was 4.60 in data set [1] (1 min) and 6.72 in data set [2].

For `CCOCCCC(CC(=O)O)N1CCc2cc(OCc3ccc(C(=N)N)cc3)ccc2C1=O` (racemic) [Example 10, (+−)-6-[[4-(Aminoiminomethyl)phenyl]methoxy]-b-(3-ethoxypropyl)-3,4-dihydro-1-oxo-2(1H)-isoquinoline Propanoic Acid Trifluoroacetate], the pIC50 is 6.33 in data set [1] (1 min) and 7.21 in data set [2].

Take `CCOCCCC(CC(=O)O)N1CCc2cc(OCCCC3CCNCC3)ccc2C1=O` (stereo not drawn) [Example 22, 6-[4-(Piperidn-4-yl)propyloxy]-3,4-dihydro-1-oxo-B-(3-ethoxypropyl)-1-oxo-2(1H)-isoquinoline Propanoic Acid Trifluoroacetate]: the pIC50 in data set [1] (1 min) is 5.70; in data set [2], 6.70.

Turning to `N=C(N)c1ccc(NC(=O)c2ccc3c(c2)CCC(CC(=O)O)C3)cc1` (stereo not drawn) [Example 40], the pIC50 in data set [1] (1 min) is 5.80; in data set [2], 7.28.

Take `CCCCCCNC(=O)C(CC(=O)O)N1CCc2cc(OCc3ccc(C(=N)N)cc3)ccc2C1=O` (racemic) [Example 5, (+−)-6-[[4-(Aminoiminomethyl)phenyl]methoxy]-3,4-dihydro-1-oxo-beta[hexylamino Carbonyl]-2(1H)-isoquinolone Propanoic Acid Trifluoroacetate]: the pIC50 is 5.15 in data set [1] (1 min) and 7.48 in data set [2].

Regarding `CCOC(=O)CC1CCc2cc(NC(=O)c3ccc(C(=N)N(C)C)cc3)ccc2O1` (racemic) [Example 73, Hydrochloride], the pIC50 was 5.92 in data set [1] (1 min) and under 5.00 in data set [2].

On to `CC1(CCCCCCCCC(=O)O)C=Cc2cc(C(=N)N)ccc2O1` (racemic) [Example 60, rac-9-(6-Aminoiminomethyl-2-methyl-2H-1-benzopyran-2-yl)nonanoic Acid], for which the pIC50 in data set [1] (1 min) is under 5.00; in data set [2], 5.74.

For `CCC(CC(=O)O)N1CCc2cc(OCc3ccc(C(=N)N)cc3)ccc2C1=O` (racemic) [Example 14, (+−)-6-[[4-(Aminoiminomethyl)phenyl]methoxy]b-ethyl-3,4-dihydro-1-oxo-2(1H)-isoquinoline Propanoic Acid Trifluoroacetate], the pIC50 in data set [1] (1 min) is 6.40; in data set [2] it was 7.35.
